Experimental data published in US20250092065A1, “2-(INDAZOL-5-YL)-6-(PIPERIDIN-4-YL)-1,7-NAPHTHYRIDINE DERIVATIVES AND RELATED COMPOUNDS AS MODULATORS FOR SPLICING NUCLEIC ACIDS AND FOR THE TREATMENT OF PROLIFERATIVE DISEASES” (REMIX THERAPEUTICS INC., priority 2022, published 2025).
Read-outs that look alike come from different tables or passages of the source.

Tests used:
[1] = tested on: HTT mRNA; test: RT-qPCR splicing assay, HTT mRNA canonical (CJ) and alternative (AJ) junction; format: cell-based, human; conditions: Homo sapiens; for AC50: HTT alternative junction mRNA, read-out: HTT AJ (increase in AJ mRNA, AC50)
Outline: (§1)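 Splice switching quantified in compound-treated A673/K562 cells after 24 h exposure (top dose 10 uM, 3-fold steps, ≤0.25% DMSO), using CJ and AJ qPCR assays run at least in duplicate. RQ derived by 2^(−ΔΔCt), then percentage response.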

[2] = tested on: Target C; test: HiBiT protein abundance assay, Target C (K562 HiBiT knock-in); format: cell-based, human; conditions: HiBiT knock-in K562 cells, 24 hours, top dose 10 μM
Outline: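 K562 HiBiT knock-in cells (10000/well) were treated 24 h at 37° C with a 10-point 3-fold dilution series (top 10 μM final, ≤0.25% DMSO). HiBiT luminescence was read after lytic LgBiT detection. Percent response used unmodified K562 and DMSO-treated knock-in controls, and IC50 came from a four-parameter fit at 50% of untreated.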

[3] = tested on: MYB; test: HiBiT protein abundance assay, MYB (K562 HiBiT knock-in); format: cell-based, human; conditions: HiBiT knock-in K562 cells, 24 hours, top dose 10 μM
Outline: (§2)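 Tagged-protein levels were measured as HiBiT/LgBiT luminescence in lysed K562 knock-in cells exposed to serially diluted compound (up to 10 μM final) for 24 hours. A four-parameter logistic regression of control-normalized signal yielded the IC50.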

[4] = tested on: HTT; test: HiBiT protein abundance assay, HTT (K562 HiBiT knock-in); format: cell-based, human; conditions: HiBiT knock-in K562 cells, 24 hours, top dose 10 μM
Outline: as §2

[5] = tested on: SMN2 mRNA; test: RT-qPCR splicing assay, SMN2 mRNA; format: cell-based, human; conditions: Homo sapiens, canonical junction qPCR panel, Table 4; read-out: SMN2 IC50 (decrease in CJ mRNA levels)
Outline: as §1

[6] = tested on: K562 cells; test: Cell Titer Glo 2.0 cell viability (toxicity) assay, K562; conditions: 500 cells/well, 72 hours
[7] = tested on: MYB mRNA; test: RT-qPCR splicing assay, MYB mRNA canonical (CJ) and alternative (AJ) junction; format: cell-based, human; conditions: Homo sapiens; for AC50: MYB alternative junction mRNA, read-out: MYB AJ (increase in AJ mRNA, AC50)
Outline: as §1

[8] = HTT canonical junction mRNA, RT-qPCR, read-out: HTT CJ (decrease in CJ mRNA levels, IC50)
[9] = canonical junction qPCR panel, Table 4, read-out: HTT IC50 (decrease in CJ mRNA levels)
[10] = MYB canonical junction mRNA, RT-qPCR, read-out: MYB CJ (decrease in CJ mRNA levels, IC50)
[11] = canonical junction qPCR panel, Table 4, read-out: MYB IC50 (decrease in CJ mRNA levels)

| Structure (SMILES) | AC50 ([1]; RT-qPCR) | IC50 [1, 8] | IC50 [1, 9] | IC50 [2] | IC50 [3] | IC50 [4] | IC50 [5] | Effect of Exemplary Compounds on Cell Viability, K562 [6] | AC50 ([7]; RT-qPCR) | IC50 [7, 10] | IC50 [7, 11] |
| --- | --- | --- | --- | --- | --- | --- | --- | --- | --- | --- | --- |
| Cn1cc2cc(-c3ccc4nc(N5CCC(NC6CC6)C5)ccc4n3)c(O)cc2n1 (centres unmarked) [Compound 158] | < 100 nM | < 100 nM | < 100 nM | 100 to 1000 nM | < 100 nM | < 100 nM | < 100 nM | B (B represents 100-1000 nM) | < 100 nM | < 100 nM | < 100 nM |
| Cn1cc2cc(-c3ccc4nc(OC5CNC5)ccc4n3)c(O)cc2n1 [Compound 159] | 1000 to 10000 nM | 1000 to 10000 nM | 1000 to 10000 nM | 1000 to 10000 nM | 100 to 1000 nM | 100 to 1000 nM | 100 to 1000 nM | C (C represents 1000-9999 nM) | 1000 to 10000 nM | 1000 to 10000 nM | 1000 to 10000 nM |
| Cn1cc2cc(-c3ccc4nc(N5CC[C@]67CCN[C@H]6CC[C@H]57)ccc4n3)c(O)cc2n1 [Compound 160] | 100 to 1000 nM | 100 to 1000 nM | 100 to 1000 nM | 100 to 1000 nM | 100 to 1000 nM | 100 to 1000 nM | < 100 nM | B (B represents 100-1000 nM) | 100 to 1000 nM | 100 to 1000 nM | 100 to 1000 nM |
| COc1cc2ccncc2cc1-c1ccc2nc(N3CCC(NC(C)(C)C)C3)ccc2n1 (centres unmarked) [Compound 161] | > 10000 nM | > 10000 nM | > 10000 nM | > 10000 nM | > 10000 nM | > 10000 nM | 1000 to 10000 nM | C (C represents 1000-9999 nM) | > 10000 nM | > 10000 nM | > 10000 nM |
| Cn1cc2cc(-c3ccc4nc(N5CCC56CCNC6)ccc4n3)c(O)cc2n1 (centres unmarked) [Compound 162] | > 10000 nM | > 10000 nM | > 10000 nM | > 10000 nM | > 10000 nM | > 10000 nM | 1000 to 10000 nM | C (C represents 1000-9999 nM) | > 10000 nM | > 10000 nM | > 10000 nM |
| Cn1cc2cc(-c3ccc4nc(N5CCC56CCCNC6)ccc4n3)c(O)cc2n1 (centres unmarked) [Compound 163] | > 10000 nM | > 10000 nM | > 10000 nM | > 10000 nM | 1000 to 10000 nM | 1000 to 10000 nM | 100 to 1000 nM | C (C represents 1000-9999 nM) | 1000 to 10000 nM | 1000 to 10000 nM | 1000 to 10000 nM |
| Cn1cc2cc(-c3ccc4nc(N5CCC56CCNCC6)ccc4n3)c(O)cc2n1 [Compound 164] | 100 to 1000 nM | 100 to 1000 nM | 100 to 1000 nM | 100 to 1000 nM | 100 to 1000 nM | 100 to 1000 nM | 100 to 1000 nM | B (B represents 100-1000 nM) | 100 to 1000 nM | 100 to 1000 nM | 100 to 1000 nM |
| Cn1cc2cc(-c3ccc4nc(N5CC(NC(C)(C)C)C5)ccc4n3)c(O)cc2n1 [Compound 165] | 1000 to 10000 nM | 1000 to 10000 nM | 1000 to 10000 nM | 1000 to 10000 nM | 1000 to 10000 nM | 1000 to 10000 nM | 1000 to 10000 nM | B (B represents 100-1000 nM) | 1000 to 10000 nM | 1000 to 10000 nM | 1000 to 10000 nM |
| CC(C)(C)NC1CCN(c2ccc3nc(-c4cc5cnccc5cc4O)ccc3n2)C1 (centres unmarked) [Compound 166] | > 10000 nM | > 10000 nM | > 10000 nM | 1000 to 10000 nM | > 10000 nM | > 10000 nM | > 10000 nM | B (B represents 100-1000 nM) | > 10000 nM | > 10000 nM | > 10000 nM |
| Cn1cnc2cc(-c3ccc4nc(N5CCC(NC(C)(C)C)C5)ccc4n3)c(O)cc2c1=O (centres unmarked) [Compound 167] | > 10000 nM | > 10000 nM | > 10000 nM | > 10000 nM | > 10000 nM | > 10000 nM | > 10000 nM | B (B represents 100-1000 nM) | > 10000 nM | > 10000 nM | > 10000 nM |
